Test results taken from PubChem BioAssay AID256 (DTP/NCI, 2004).
Several values for one entry are separate records, joined by “and”; a condition that tells them apart may be missing. Equal values may be shown once. Inconclusive results and toxic doses are left out. How the source made its calls: active means survival T/C of 150% or more; inactive means T/C below 125% in these data. Residues, ends and D or L forms follow the SMILES beside them. *: point of attachment. Boc = CC(C)(C)OC(=O)*; NHNH2 = NN*

System: CD2F1 mice, L1210 leukemia ip, survival T/C
Assay: NCI In Vivo Anticancer Drug Screen. Data for tumor model L1210 Leukemia (intraperitoneal) in CD2F1 (CDF1) mice
Settings: endpoint: mean survival time, higher = longer survival
Summary of the method: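 In this screen, transplantable tumors were grown in mice given either the compound or its vehicle. Results were expressed as the treated measurement relative to the control measurement.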

[1] = dose: 25.0 mg/kg/injection, schedule: Q01DX009 (ip), vehicle: saline
[2] = dose: 50.0 mg/kg/injection, schedule: Q01DX009 (ip), vehicle: saline
[3] = dose: 100.0 mg/kg/injection, schedule: Q01DX009 (ip), vehicle: saline
[4] = dose: 200.0 mg/kg/injection, schedule: Q01DX009 (ip), vehicle: saline
[5] = dose: 100.0 mg/kg/injection, schedule: Q04DX003 (ip), vehicle: saline with Tween-80
[6] = dose: 200.0 mg/kg/injection, schedule: Q04DX003 (ip), vehicle: saline with Tween-80
[7] = dose: 400.0 mg/kg/injection, schedule: Q04DX003 (ip), vehicle: saline with Tween-80
[8] = dose: 75.0 mg/kg/injection, schedule: Q01DX001 (ip), vehicle: saline
[9] = dose: 150.0 mg/kg/injection, schedule: Q01DX001 (ip), vehicle: saline
[10] = dose: 300.0 mg/kg/injection, schedule: Q01DX001 (ip), vehicle: saline
[11] = dose: 100.0 mg/kg/injection, schedule: Q04DX003 (ip), vehicle: Klucel (hydroxypropylcellulose) (HPC)
[12] = dose: 200.0 mg/kg/injection, schedule: Q04DX003 (ip), vehicle: Klucel (hydroxypropylcellulose) (HPC)
[13] = dose: 400.0 mg/kg/injection, schedule: Q04DX003 (ip), vehicle: Klucel (hydroxypropylcellulose) (HPC)
[14] = dose: 100.0 mg/kg/injection, schedule: Q01DX009 (ip), vehicle: saline with Tween-80
[15] = dose: 200.0 mg/kg/injection, schedule: Q01DX009 (ip), vehicle: saline with Tween-80
[16] = dose: 100.0 mg/kg/injection, schedule: Q01DX001 (ip), vehicle: saline
[17] = dose: 200.0 mg/kg/injection, schedule: Q01DX001 (ip), vehicle: saline
[18] = dose: 50.0 mg/kg/injection, schedule: Q01DX009 (ip), vehicle: Klucel (hydroxypropylcellulose) (HPC)
[19] = dose: 100.0 mg/kg/injection, schedule: Q01DX009 (ip), vehicle: Klucel (hydroxypropylcellulose) (HPC)
[20] = dose: 200.0 mg/kg/injection, schedule: Q01DX009 (ip), vehicle: Klucel (hydroxypropylcellulose) (HPC)
[21] = dose: 400.0 mg/kg/injection, schedule: Q01DX009 (ip), vehicle: Klucel (hydroxypropylcellulose) (HPC)
[22] = dose: 100.0 mg/kg/injection, schedule: Q01DX001 (ip), vehicle: saline with Tween-80
[23] = dose: 200.0 mg/kg/injection, schedule: Q01DX001 (ip), vehicle: saline with Tween-80
[24] = dose: 50.0 mg/kg/injection, schedule: Q01DX009 (ip), vehicle: saline with Tween-80

Measured: T/C

CCCC(=O)NC1=C(Cl)C(=O)c2ccccc2C1=O
inactive: dose: 5.0 mg/kg/injection, schedule: Q01DX001 (ip), vehicle: saline 88 % of control | dose: 10.0 mg/kg/injection, schedule: Q01DX001 (ip), vehicle: saline 103 % of control | dose: 20.0 mg/kg/injection, schedule: Q01DX001 (ip), vehicle: saline 95 % of control

CCCC(=O)O
inactive: dose: 1.25 mg/kg/injection, schedule: Q01DX009 (ip), vehicle: saline 96 % of control | dose: 12.5 mg/kg/injection, schedule: Q01DX009 (ip), vehicle: saline 98 % of control | [1] 96 % of control and 100 % of control | [2] 96 % of control and 97 % of control | [3] 97 % of control and 100 % of control | dose: 100.0 mg/kg/injection, schedule: Q04DX003 (ip), vehicle: saline 102 % of control | [4] 95 % of control and 107 % of control | dose: 200.0 mg/kg/injection, schedule: Q04DX003 (ip), vehicle: saline 102 % of control | dose: 400.0 mg/kg/injection, schedule: Q04DX003 (ip), vehicle: saline 105 % of control

CC(C)C(=O)Nc1cccc(Cl)c1
inactive: [5] 97 % of control | [6] 97 % of control | [7] 94 % of control

c1ccc2c(c1)OC1(CCCCC1)O2
inactive: [5] 100 % of control | [6] 103 % of control | [7] 102 % of control

CCCCCCC(C)NCCOC(=O)c1ccccc1 (centres undefined)
inactive: [8] 103 % of control | [9] 102 % of control | [10] 97 % of control

O=C(O)c1c2ccccc2cc2ccccc12
inactive: [11] 101 % of control | [12] 95 % of control | [13] 90 % of control

C1=CC2C3C=CC(CC3)C2CC1 (centres undefined)
inactive: [14] 103 % of control | [15] 98 % of control

CCC(=O)c1ccc2c(c1)N(CCCN1CCN(CCO)CC1)c1ccccc1S2
inactive: dose: 25.0 mg/kg/injection, schedule: Q04DX003 (ip), vehicle: Klucel (hydroxypropylcellulose) (HPC) 97 % of control | [11] 116 % of control

COc1ccc(CC(N)C(=O)O)cc1N(CCCl)CCCl (centres undefined)
inactive: dose: 3.2 mg/kg/injection, schedule: Q01DX001 (ip), vehicle: carboxymethylcellulose (CMC) 122 % of control

CC(=O)SCCCCl
inactive: [3] 97 % of control | [4] 101 % of control

COc1ncc(C2OC(CO)C(O)C2O)c(OC)n1 (centres undefined)
inactive: dose: 25.0 mg/kg/injection, schedule: Q01DX009 (ip), vehicle: other 100 % of control | dose: 50.0 mg/kg/injection, schedule: Q01DX009 (ip), vehicle: other 104 % of control | dose: 100.0 mg/kg/injection, schedule: Q01DX009 (ip), vehicle: other 96 % of control | dose: 200.0 mg/kg/injection, schedule: Q01DX009 (ip), vehicle: other 100 % of control | dose: 400.0 mg/kg/injection, schedule: Q01DX009 (ip), vehicle: other 96 % of control

CC(CC(=O)O)c1ccc(F)cc1 (centres undefined)
inactive: [5] 101 % of control | [6] 100 % of control | [7] 95 % of control

O=S(=O)(C1CCCCC1)N1N=NC2CCCCC21 (centres undefined)
inactive: [5] 100 % of control | [6] 102 % of control

COC(=O)CC(=O)NC(C)CC1CNc2ccccc21 (centres undefined)
inactive: [5] 103 % of control | [6] 103 % of control | [7] 97 % of control

O=C(CCCCl)Nc1cc([N+](=O)[O-])ccc1OCc1ccccc1
inactive: [16] 94 % of control | [17] 94 % of control | dose: 400.0 mg/kg/injection, schedule: Q01DX001 (ip), vehicle: saline 94 % of control

O=C(O)C(O)CBr (centres undefined)
inactive: dose: 12.5 mg/kg/injection, schedule: Q04DX003 (ip), vehicle: saline 101 % of control | dose: 25.0 mg/kg/injection, schedule: Q04DX003 (ip), vehicle: saline 106 % of control | dose: 50.0 mg/kg/injection, schedule: Q04DX003 (ip), vehicle: saline 106 % of control

O=C1NC(c2ccccc2Cl)Nc2ccccc21 (centres undefined)
inactive: [18] 91 % of control | [19] 107 % of control | [20] 93 % of control | [21] 93 % of control

NC(=O)c1[nH]cnc1/N=N/N(CCCl)Cc1ccccc1
active: dose: 66.0 mg/kg/injection, schedule: Q01DX009 (ip), vehicle: Klucel (hydroxypropylcellulose) (HPC) 180 % of control | [19] 264 % of control | dose: 150.0 mg/kg/injection, schedule: Q01DX009 (ip), vehicle: Klucel (hydroxypropylcellulose) (HPC) 264 % of control | [12] 227 % of control | [13] 268 % of control

COc1ccccc1-n1c(C)nc2c(cnn2C2OC(CO)C(O)C2O)c1=O (centres undefined)
inactive: dose: 12.5 mg/kg/injection, schedule: Q01DX005 (ip), vehicle: saline 107 % of control | dose: 25.0 mg/kg/injection, schedule: Q01DX005 (ip), vehicle: saline 101 % of control | dose: 50.0 mg/kg/injection, schedule: Q01DX005 (ip), vehicle: saline 101 % of control | dose: 100.0 mg/kg/injection, schedule: Q01DX005 (ip), vehicle: saline 98 % of control | dose: 200.0 mg/kg/injection, schedule: Q01DX005 (ip), vehicle: saline 101 % of control

CC1=C(c2ccccc2)C(c2ccccc2)c2ccccc21 (centres undefined)
inactive: [22] 94 % of control | [23] 93 % of control | dose: 400.0 mg/kg/injection, schedule: Q01DX001 (ip), vehicle: saline with Tween-80 92 % of control

BrC1c2cccc3cccc(c23)C1Br (centres undefined)
inactive: dose: 6.25 mg/kg/injection, schedule: Q01DX009 (ip), vehicle: saline with Tween-80 115 % of control | dose: 12.5 mg/kg/injection, schedule: Q01DX009 (ip), vehicle: saline with Tween-80 108 % of control | dose: 25.0 mg/kg/injection, schedule: Q01DX009 (ip), vehicle: saline with Tween-80 115 % of control and 106 % of control | [24] 115 % of control and 105 % of control | [14] 100 % of control and 112 % of control | [15] 110 % of control

COC(c1ccccc1)C(c1ccccc1)[N+]1(C)CCCCC1 (centres undefined)
inactive: [8] 97 % of control | [9] 113 % of control | [10] 97 % of control

C=CCC(Cc1ccccc1)C1=NC(C)(C)CC(C)O1 (centres undefined)
inactive: [24] 101 % of control | [22] 97 % of control | [14] 97 % of control | [23] 103 % of control | [15] 94 % of control

CC(C)CC(NC(=O)C(Cc1c[nH]c2ccccc12)NC(=O)OC(C)(C)C)C(=O)NN (stereo not drawn) (Boc-Trp-Leu-NHNH2; configuration not given here)
inactive: [1] 105 % of control | [2] 106 % of control and 109 % of control | [3] 117 % of control and 124 % of control | [4] 117 % of control

Oc1ccc(Br)cc1/C=N/c1nc(-c2ccccc2)cs1.Oc1ccc(Br)cc1/C=N/c1nc(-c2ccccc2)cs1.[Co]
inactive: [16] 100 % of control | [17] 89 % of control

N#Cc1cn(C2OC(CO)C(O)C2O)c2ncn3ncnc3c12 (centres undefined)
inactive: dose: 3.13 mg/kg/injection, schedule: Q01DX005 (ip), vehicle: water 102 % of control | dose: 6.25 mg/kg/injection, schedule: Q01DX005 (ip), vehicle: water 102 % of control | dose: 12.5 mg/kg/injection, schedule: Q01DX005 (ip), vehicle: distilled water + Tween-80 122 % of control | dose: 12.5 mg/kg/injection, schedule: Q01DX005 (ip), vehicle: water 112 % of control | dose: 25.0 mg/kg/injection, schedule: Q01DX005 (ip), vehicle: distilled water + Tween-80 112 % of control | dose: 25.0 mg/kg/injection, schedule: Q01DX005 (ip), vehicle: water 120 % of control | dose: 50.0 mg/kg/injection, schedule: Q01DX005 (ip), vehicle: distilled water + Tween-80 116 % of control | dose: 100.0 mg/kg/injection, schedule: Q01DX005 (ip), vehicle: distilled water + Tween-80 106 % of control

CCC(c1ccccc1)C(CC)c1ccc(N(C)C)cc1 (centres undefined)
inactive: [18] 95 % of control | [19] 94 % of control | [20] 91 % of control | [21] 97 % of control
